In ChEMBL document CHEMBL1158297, “Compounds from Syzygium aromaticum possessing growth inhibitory activity against oral pathogens” (1996):
Values after ≈ are worked out from the molar mass of the structure shown.

Tests used:
Format in all cases: functional
Porphyromonas gingivalis = test: Antimicrobial activity against Porphyromonas gingivalis ATCC 33277 by disk diffusion method
Actinomyces viscosus = test: Antimicrobial activity against Actinomyces viscosus W1053 by disk diffusion method
Streptococcus mutans = test: Antimicrobial activity against Streptococcus mutans Ingbritt by disk diffusion method
Prevotella intermedia = test: Antimicrobial activity against Prevotella intermedia by disk diffusion method

| MIC (Porphyromonas gingivalis) [µg/mL] | MIC (Actinomyces viscosus) [µg/mL] | MIC (Streptococcus mutans) [µg/mL] | MIC (Prevotella intermedia) [µg/mL] | Compound |
| --- | --- | --- | --- | --- |
| 625 (≈ 1760 µM) | > 2500 | > 2500 | 625 (≈ 1760 µM) | Cc1cc(=O)c2c(O)c([C@@H]3O[C@H](CO)[C@@H](O)[C@H](O)[C@H]3O)c(O)cc2o1 [BIFLORIN] |
| 20 (≈ 69.9 µM) | 1250 (≈ 4370 µM) | 2500 (≈ 8730 µM) | 20 (≈ 69.9 µM) | O=c1c(O)c(-c2ccc(O)cc2)oc2cc(O)cc(O)c12 [KAEMPFEROL] |
| 20 (≈ 62.8 µM) | 1250 (≈ 3930 µM) | 2500 (≈ 7860 µM) | 20 (≈ 62.8 µM) | O=c1c(O)c(-c2cc(O)c(O)c(O)c2)oc2cc(O)cc(O)c12 [MYRICETIN] |

Further lines, the molecule ahead of its results:

| Compound | MIC (Porphyromonas gingivalis) [µg/mL] | MIC (Actinomyces viscosus) [µg/mL] | MIC (Streptococcus mutans) [µg/mL] | MIC (Prevotella intermedia) [µg/mL] |
| --- | --- | --- | --- | --- |
| O=c1oc2c(O)c(O)cc3c(=O)oc4c(O)c(O)cc1c4c23 [ELLAGIC ACID] | 1250 (≈ 4140 µM) | 1250 (≈ 4140 µM) | 1250 (≈ 4140 µM) | 1250 (≈ 4140 µM) |
| O=C(O)c1cc(O)c(O)c(O)c1 [GALLIC ACID] | 156 (≈ 917 µM) | 78 (≈ 458 µM) | > 2500 | 78 (≈ 458 µM) |
| CC1(C)CC[C@]2(C(=O)O)CC[C@]3(C)C(=CC[C@@H]4[C@@]5(C)CC[C@H](O)C(C)(C)[C@@H]5CC[C@]43C)[C@@H]2C1 [OLEANOLIC_ACID] | 625 (≈ 1370 µM) | 625 (≈ 1370 µM) | 1250 (≈ 2740 µM) | 1250 (≈ 2740 µM) |
| COc1cc(O)c2c(=O)c(O)c(-c3ccc(O)cc3)oc2c1 [RHAMNOCITRIN] | 625 (≈ 2080 µM) | 1250 (≈ 4160 µM) | 1250 (≈ 4160 µM) | 625 (≈ 2080 µM) |
| C[n+]1cc2c3c(ccc2c2ccc4cc5c(cc4c21)OCO5)OCO3 [SANGUINARIUM] | 2 | 15 | 15 | 2 |
